{"source": "the kinase profiling compilation of Christmann-Franck et al. (2016)", "test_in_all_cases": "KINOMEscan competition binding", "details_in_all_cases": "compound 10.0 µM", "key": {"TXK (human)": {"target": "TXK (human) (UniProt P42681)"}, "OXSR1 (human)": {"target": "OXSR1 (human) (UniProt O95747)", "sequence (O95747 whole entry, looked up)": "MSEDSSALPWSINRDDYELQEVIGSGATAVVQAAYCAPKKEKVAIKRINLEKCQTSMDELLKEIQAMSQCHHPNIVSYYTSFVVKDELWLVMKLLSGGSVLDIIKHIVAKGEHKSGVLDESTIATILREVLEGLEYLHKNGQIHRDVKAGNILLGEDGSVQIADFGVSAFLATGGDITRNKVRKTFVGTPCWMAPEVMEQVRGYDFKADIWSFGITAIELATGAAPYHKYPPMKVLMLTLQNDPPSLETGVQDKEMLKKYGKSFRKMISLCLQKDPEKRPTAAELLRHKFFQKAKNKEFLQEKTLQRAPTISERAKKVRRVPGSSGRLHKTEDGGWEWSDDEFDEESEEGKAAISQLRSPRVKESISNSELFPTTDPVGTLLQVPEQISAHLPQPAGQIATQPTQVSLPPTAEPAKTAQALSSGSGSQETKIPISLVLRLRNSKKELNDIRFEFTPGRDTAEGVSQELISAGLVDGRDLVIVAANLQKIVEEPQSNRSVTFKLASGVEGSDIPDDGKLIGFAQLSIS"}, "EPHA1 (human)": {"target": "EPHA1 (human) (UniProt P21709)"}, "MAP2K3 (human)": {"target": "MAP2K3 (human) (UniProt P46734)", "sequence (P46734 whole entry, looked up)": "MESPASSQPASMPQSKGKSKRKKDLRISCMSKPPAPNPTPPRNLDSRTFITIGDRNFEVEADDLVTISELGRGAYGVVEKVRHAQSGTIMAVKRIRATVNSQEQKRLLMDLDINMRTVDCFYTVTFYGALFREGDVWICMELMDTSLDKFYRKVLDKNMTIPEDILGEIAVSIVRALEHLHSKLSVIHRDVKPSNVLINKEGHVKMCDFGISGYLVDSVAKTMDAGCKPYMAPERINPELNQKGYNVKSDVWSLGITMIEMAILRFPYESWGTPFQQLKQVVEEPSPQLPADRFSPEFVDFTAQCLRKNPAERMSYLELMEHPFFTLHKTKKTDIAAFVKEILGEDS"}, "WEE1 (human)": {"target": "WEE1 (human) (UniProt P30291)"}, "MAPK10 (human)": {"target": "MAPK10 (human) (UniProt P53779)"}, "CDK17 (human)": {"target": "CDK17 (human) (UniProt Q00537)"}, "PRKCH (human)": {"target": "PRKCH (human) (UniProt P24723)"}, "RPS6KA2 KD2 (human)": {"target": "RPS6KA2 KD2 (human) (UniProt Q15349)"}, "IRAK1 (human)": {"target": "IRAK1 (human) (UniProt P51617)"}, "PIP5K1C (human)": {"target": "PIP5K1C (human) (UniProt O60331)"}, "CIT (human)": {"target": "CIT (human) (UniProt O14578)"}, "PI4KB (human)": {"target": "PI4KB (human) (UniProt Q9UBF8)"}, "STK32A (human)": {"target": "STK32A (human) (UniProt Q8WU08)"}, "MAP3K10 (human)": {"target": "MAP3K10 (human) (UniProt Q02779)"}, "MLTK (human)": {"target": "MLTK (human) (UniProt Q9NYL2)", "sequence (Q9NYL2 whole entry, looked up)": "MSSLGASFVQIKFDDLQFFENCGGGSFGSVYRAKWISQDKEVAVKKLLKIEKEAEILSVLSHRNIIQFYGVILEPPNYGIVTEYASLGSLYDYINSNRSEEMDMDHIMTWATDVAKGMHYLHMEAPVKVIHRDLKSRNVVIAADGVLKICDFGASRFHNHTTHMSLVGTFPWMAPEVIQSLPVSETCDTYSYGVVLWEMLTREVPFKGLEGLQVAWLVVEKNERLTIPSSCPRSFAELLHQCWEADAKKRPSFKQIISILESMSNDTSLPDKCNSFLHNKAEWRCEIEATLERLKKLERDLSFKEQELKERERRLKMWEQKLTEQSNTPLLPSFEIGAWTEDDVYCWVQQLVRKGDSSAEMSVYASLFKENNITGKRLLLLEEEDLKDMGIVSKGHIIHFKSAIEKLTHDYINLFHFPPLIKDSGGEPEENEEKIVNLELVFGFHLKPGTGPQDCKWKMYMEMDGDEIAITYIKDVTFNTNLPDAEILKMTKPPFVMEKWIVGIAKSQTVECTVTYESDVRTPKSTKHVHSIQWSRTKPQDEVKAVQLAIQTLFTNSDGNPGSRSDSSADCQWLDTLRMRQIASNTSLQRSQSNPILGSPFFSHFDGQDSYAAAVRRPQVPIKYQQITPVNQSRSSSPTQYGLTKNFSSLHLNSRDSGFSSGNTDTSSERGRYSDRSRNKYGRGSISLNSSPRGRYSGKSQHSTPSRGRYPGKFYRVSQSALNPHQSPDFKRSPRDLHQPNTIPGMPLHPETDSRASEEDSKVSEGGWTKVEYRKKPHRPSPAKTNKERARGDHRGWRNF"}, "CSNK1G3 (human)": {"target": "CSNK1G3 (human) (UniProt Q9Y6M4)"}, "RIPK4 (human)": {"target": "RIPK4 (human) (UniProt P57078)"}, "TLK1 (human)": {"target": "TLK1 (human) (UniProt Q9UKI8)", "sequence (Q9UKI8 whole entry, looked up)": "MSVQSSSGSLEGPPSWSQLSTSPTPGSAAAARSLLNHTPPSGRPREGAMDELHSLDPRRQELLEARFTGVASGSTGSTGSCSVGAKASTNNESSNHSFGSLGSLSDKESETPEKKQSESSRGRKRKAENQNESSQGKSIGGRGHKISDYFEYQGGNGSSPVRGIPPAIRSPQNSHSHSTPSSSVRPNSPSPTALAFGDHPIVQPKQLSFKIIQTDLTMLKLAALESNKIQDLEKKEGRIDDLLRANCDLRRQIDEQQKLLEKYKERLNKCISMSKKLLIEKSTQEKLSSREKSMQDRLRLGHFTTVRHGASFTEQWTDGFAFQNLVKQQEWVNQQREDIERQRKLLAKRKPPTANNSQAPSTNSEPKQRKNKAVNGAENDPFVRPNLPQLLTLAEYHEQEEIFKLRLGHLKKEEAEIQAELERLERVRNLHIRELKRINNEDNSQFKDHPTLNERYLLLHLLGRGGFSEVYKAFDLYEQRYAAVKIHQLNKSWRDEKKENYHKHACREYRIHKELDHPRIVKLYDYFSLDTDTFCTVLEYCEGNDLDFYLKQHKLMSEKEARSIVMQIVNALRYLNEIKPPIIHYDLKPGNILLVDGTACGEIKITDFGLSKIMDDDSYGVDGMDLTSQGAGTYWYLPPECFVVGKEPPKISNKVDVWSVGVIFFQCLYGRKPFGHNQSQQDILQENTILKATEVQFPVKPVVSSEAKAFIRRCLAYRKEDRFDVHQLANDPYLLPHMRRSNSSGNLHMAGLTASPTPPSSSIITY"}, "PDPK1 (human)": {"target": "PDPK1 (human) (UniProt O15530)"}, "[1]": {"test_system": "PIK3CA (human), P42336 [H1047L]"}, "[2]": {"target": "JAK2 JH1 catalytic (human) (UniProt O60674)"}, "PDGFRA (human)": {"target": "PDGFRA (human) (UniProt P16234)"}, "[3]": {"test_system": "EGFR (human), P00533 [A750P; 747-749 del]"}, "CSK (human)": {"target": "CSK (human) (UniProt P41240)"}, "CDK11B (human)": {"target": "CDK11B (human) (UniProt P21127)"}, "PRKACA (human)": {"target": "PRKACA (human) (UniProt P17612)"}, "CASK (human)": {"target": "CASK (human) (UniProt O14936)"}, "ACVR1 (human)": {"target": "ACVR1 (human) (UniProt Q04771)"}, "PRKD1 (human)": {"target": "PRKD1 (human) (UniProt Q15139)"}, "MYLK4 (human)": {"target": "MYLK4 (human) (UniProt Q86YV6)"}, "RPS6KB1 (human)": {"target": "RPS6KB1 (human) (UniProt P23443)", "sequence (P23443 whole entry, looked up)": "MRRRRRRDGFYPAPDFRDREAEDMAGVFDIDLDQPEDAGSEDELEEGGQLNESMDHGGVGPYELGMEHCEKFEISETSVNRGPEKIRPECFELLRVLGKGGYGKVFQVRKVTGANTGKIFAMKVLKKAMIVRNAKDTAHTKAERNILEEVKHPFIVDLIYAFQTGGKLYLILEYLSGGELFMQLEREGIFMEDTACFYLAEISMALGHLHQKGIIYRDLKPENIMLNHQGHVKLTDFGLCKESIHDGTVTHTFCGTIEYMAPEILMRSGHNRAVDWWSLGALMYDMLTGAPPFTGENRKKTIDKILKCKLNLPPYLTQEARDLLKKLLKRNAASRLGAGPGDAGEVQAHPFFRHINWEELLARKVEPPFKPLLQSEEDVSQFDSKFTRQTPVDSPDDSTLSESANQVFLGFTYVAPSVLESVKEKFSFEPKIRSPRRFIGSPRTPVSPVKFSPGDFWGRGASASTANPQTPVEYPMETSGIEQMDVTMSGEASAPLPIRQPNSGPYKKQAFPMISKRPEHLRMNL"}, "EIF2AK1 (human)": {"target": "EIF2AK1 (human) (UniProt Q9BQI3)"}, "RPS6KA6 KD2 (human)": {"target": "RPS6KA6 KD2 (human) (UniProt Q9UK32)"}, "RPS6KA5 KD2 (human)": {"target": "RPS6KA5 KD2 (human) (UniProt O75582)"}, "AKT3 (human)": {"target": "AKT3 (human) (UniProt Q9Y243)"}, "ROS1 (human)": {"target": "ROS1 (human) (UniProt P08922)"}, "EPHB4 (human)": {"target": "EPHB4 (human) (UniProt P54760)", "sequence (P54760 whole entry, looked up)": "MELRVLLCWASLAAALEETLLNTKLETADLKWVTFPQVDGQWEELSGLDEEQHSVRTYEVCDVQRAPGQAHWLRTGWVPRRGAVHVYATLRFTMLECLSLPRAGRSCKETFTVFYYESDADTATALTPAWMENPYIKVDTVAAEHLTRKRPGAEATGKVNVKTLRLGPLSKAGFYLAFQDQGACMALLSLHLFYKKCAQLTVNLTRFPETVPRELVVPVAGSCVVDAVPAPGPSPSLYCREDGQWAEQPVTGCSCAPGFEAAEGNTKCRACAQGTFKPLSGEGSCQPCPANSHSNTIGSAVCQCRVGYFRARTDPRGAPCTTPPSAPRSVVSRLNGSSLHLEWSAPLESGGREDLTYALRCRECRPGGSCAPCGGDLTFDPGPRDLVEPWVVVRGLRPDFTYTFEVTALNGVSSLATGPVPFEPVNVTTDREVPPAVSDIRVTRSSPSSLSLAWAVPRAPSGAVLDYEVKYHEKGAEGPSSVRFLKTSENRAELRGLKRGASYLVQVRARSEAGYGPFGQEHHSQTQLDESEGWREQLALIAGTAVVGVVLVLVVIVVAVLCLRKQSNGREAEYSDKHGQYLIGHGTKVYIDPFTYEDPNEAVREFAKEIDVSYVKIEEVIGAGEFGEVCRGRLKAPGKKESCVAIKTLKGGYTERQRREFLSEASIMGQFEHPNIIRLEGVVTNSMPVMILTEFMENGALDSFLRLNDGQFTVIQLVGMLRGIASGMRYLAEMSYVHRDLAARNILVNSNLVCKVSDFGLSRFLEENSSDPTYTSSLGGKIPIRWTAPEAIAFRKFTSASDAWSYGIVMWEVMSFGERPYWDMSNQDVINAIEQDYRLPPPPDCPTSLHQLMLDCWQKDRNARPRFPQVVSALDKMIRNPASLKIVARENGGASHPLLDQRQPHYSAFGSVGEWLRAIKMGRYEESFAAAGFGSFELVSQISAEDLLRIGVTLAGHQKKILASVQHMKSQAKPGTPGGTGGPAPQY"}, "SGK110 (human)": {"target": "SGK110 (human) (UniProt P0C264)"}, "EPHA3 (human)": {"target": "EPHA3 (human) (UniProt P29320)", "sequence (P29320 whole entry, looked up)": "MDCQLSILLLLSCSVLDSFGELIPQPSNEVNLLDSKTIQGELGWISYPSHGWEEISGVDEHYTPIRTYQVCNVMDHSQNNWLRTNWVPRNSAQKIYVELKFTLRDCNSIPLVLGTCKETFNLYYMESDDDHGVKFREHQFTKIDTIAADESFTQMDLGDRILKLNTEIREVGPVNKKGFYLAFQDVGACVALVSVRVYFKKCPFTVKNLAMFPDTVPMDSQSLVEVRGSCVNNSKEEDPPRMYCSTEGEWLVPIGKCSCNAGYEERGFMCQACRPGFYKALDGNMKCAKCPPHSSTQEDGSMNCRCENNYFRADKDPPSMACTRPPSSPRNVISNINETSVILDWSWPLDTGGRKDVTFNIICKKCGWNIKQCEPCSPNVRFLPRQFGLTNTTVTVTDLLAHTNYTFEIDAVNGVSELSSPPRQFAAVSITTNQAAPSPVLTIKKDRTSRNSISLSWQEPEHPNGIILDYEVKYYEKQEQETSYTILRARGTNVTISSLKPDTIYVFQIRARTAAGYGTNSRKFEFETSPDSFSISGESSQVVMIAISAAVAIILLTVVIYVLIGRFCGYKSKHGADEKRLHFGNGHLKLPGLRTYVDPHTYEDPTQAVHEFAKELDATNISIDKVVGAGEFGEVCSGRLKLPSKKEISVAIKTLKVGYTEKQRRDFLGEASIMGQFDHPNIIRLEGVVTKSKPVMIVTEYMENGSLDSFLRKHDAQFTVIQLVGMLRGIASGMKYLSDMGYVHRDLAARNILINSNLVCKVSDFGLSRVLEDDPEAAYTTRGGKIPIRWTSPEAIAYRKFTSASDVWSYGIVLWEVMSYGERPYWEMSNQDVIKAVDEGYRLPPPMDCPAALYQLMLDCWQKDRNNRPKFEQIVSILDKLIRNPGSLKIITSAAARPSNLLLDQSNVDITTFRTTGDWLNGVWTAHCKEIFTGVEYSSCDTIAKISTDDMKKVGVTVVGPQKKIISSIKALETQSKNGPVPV"}}}
{"smiles": "CCN1CCN(Cc2ccc(NC(=O)c3ccc(C)c(/C=C/c4cnc5[nH]ccc5c4OC)c3)cc2C(F)(F)F)CC1", "values": [{"measurement": "kinase still bound, per cent of control", "setting": "TXK (human)", "value": 0.7, "unit": "%"}, {"measurement": "kinase still bound, per cent of control", "setting": "OXSR1 (human)", "value": 74, "unit": "%"}, {"measurement": "kinase still bound, per cent of control", "setting": "EPHA1 (human)", "value": 2, "unit": "%"}, {"measurement": "kinase still bound, per cent of control", "setting": "MAP2K3 (human)", "value": 68, "unit": "%"}, {"measurement": "kinase still bound, per cent of control", "setting": "WEE1 (human)", "value": 100, "unit": "%"}, {"measurement": "kinase still bound, per cent of control", "setting": "MAPK10 (human)", "value": 15, "unit": "%"}, {"measurement": "kinase still bound, per cent of control", "setting": "CDK17 (human)", "value": 61, "unit": "%"}, {"measurement": "kinase still bound, per cent of control", "setting": "PRKCH (human)", "value": 100, "unit": "%"}, {"measurement": "kinase still bound, per cent of control", "setting": "RPS6KA2 KD2 (human)", "value": 42, "unit": "%"}, {"measurement": "kinase still bound, per cent of control", "setting": "IRAK1 (human)", "value": 26, "unit": "%"}, {"measurement": "kinase still bound, per cent of control", "setting": "PIP5K1C (human)", "value": 84, "unit": "%"}, {"measurement": "kinase still bound, per cent of control", "setting": "CIT (human)", "value": 0, "unit": "%"}, {"measurement": "kinase still bound, per cent of control", "setting": "PI4KB (human)", "value": 91, "unit": "%"}, {"measurement": "kinase still bound, per cent of control", "setting": "STK32A (human)", "value": 100, "unit": "%"}, {"measurement": "kinase still bound, per cent of control", "setting": "MAP3K10 (human)", "value": 20, "unit": "%"}, {"measurement": "kinase still bound, per cent of control", "setting": "MLTK (human)", "value": 0.8, "unit": "%"}, {"measurement": "kinase still bound, per cent of control", "setting": "CSNK1G3 (human)", "value": 48, "unit": "%"}, {"measurement": "kinase still bound, per cent of control", "setting": "RIPK4 (human)", "value": 56, "unit": "%"}, {"measurement": "kinase still bound, per cent of control", "setting": "TLK1 (human)", "value": 100, "unit": "%"}, {"measurement": "kinase still bound, per cent of control", "setting": "PDPK1 (human)", "value": 65, "unit": "%"}, {"measurement": "kinase still bound, per cent of control", "setting": "[1]", "value": 100, "unit": "%"}, {"measurement": "kinase still bound, per cent of control", "setting": "[2]", "value": 12, "unit": "%"}, {"measurement": "kinase still bound, per cent of control", "setting": "PDGFRA (human)", "value": 0.15, "unit": "%"}, {"measurement": "kinase still bound, per cent of control", "setting": "[3]", "value": 1.1, "unit": "%"}, {"measurement": "kinase still bound, per cent of control", "setting": "CSK (human)", "value": 0.75, "unit": "%"}, {"measurement": "kinase still bound, per cent of control", "setting": "CDK11B (human)", "value": 8.5, "unit": "%"}, {"measurement": "kinase still bound, per cent of control", "setting": "PRKACA (human)", "value": 100, "unit": "%"}, {"measurement": "kinase still bound, per cent of control", "setting": "CASK (human)", "value": 77, "unit": "%"}, {"measurement": "kinase still bound, per cent of control", "setting": "ACVR1 (human)", "value": 100, "unit": "%"}, {"measurement": "kinase still bound, per cent of control", "setting": "PRKD1 (human)", "value": 3.5, "unit": "%"}, {"measurement": "kinase still bound, per cent of control", "setting": "MYLK4 (human)", "value": 23, "unit": "%"}, {"measurement": "kinase still bound, per cent of control", "setting": "RPS6KB1 (human)", "value": 9, "unit": "%"}, {"measurement": "kinase still bound, per cent of control", "setting": "EIF2AK1 (human)", "value": 78, "unit": "%"}, {"measurement": "kinase still bound, per cent of control", "setting": "RPS6KA6 KD2 (human)", "value": 15, "unit": "%"}, {"measurement": "kinase still bound, per cent of control", "setting": "RPS6KA5 KD2 (human)", "value": 100, "unit": "%"}, {"measurement": "kinase still bound, per cent of control", "setting": "AKT3 (human)", "value": 100, "unit": "%"}, {"measurement": "kinase still bound, per cent of control", "setting": "ROS1 (human)", "value": 100, "unit": "%"}, {"measurement": "kinase still bound, per cent of control", "setting": "EPHB4 (human)", "value": 2.7, "unit": "%"}, {"measurement": "kinase still bound, per cent of control", "setting": "SGK110 (human)", "value": 41, "unit": "%"}, {"measurement": "kinase still bound, per cent of control", "setting": "EPHA3 (human)", "value": 4.8, "unit": "%"}]}
